Results as given in patent US20090036547A1 (priority 2005, published 2009).

Columns and labels:
[1] = system: Aedes albopictus (susceptible) Albo larvae; assay: WHO standard larval bioassay; assay type: in vivo; settings: Example 2, Ae. albopictus Susceptible, 10% working dilution in ethanol (mixture 5%+5%), 24 hours
[2] = system: range of mosquito species (larvae); assay: WHO standard larval bioassay, summary over all strains; assay type: in vivo, Anopheles, Aedes, Culex; settings: Example 2, LD90 similar in susceptible and resistant strains
[3] = system: Anopheles stephensi (Organophosphate Resistant) ST Mal larvae; assay: WHO standard larval bioassay; assay type: in vivo; settings: Example 2, An. Stephensi OP Resistant, 10% working dilution in ethanol (mixture 5%+5%), 24 hours
[4] = system: Anopheles albimanus (susceptible) Mexico larvae; assay: WHO standard larval bioassay; assay type: in vivo; settings: Example 2, An. Albimanus Susceptible, 10% working dilution in ethanol (mixture 5%+5%), 24 hours
[5] = system: Anopheles gambiae (DDT resistant) ZANDS larvae; assay: WHO standard larval bioassay; assay type: in vivo; settings: Example 2, An. Gambiae DDT Resistant, 10% working dilution in ethanol (mixture 5%+5%), 24 hours
[6] = system: Culex pipiens pipiens (susceptible) Pip larvae; assay: WHO standard larval bioassay; assay type: in vivo; settings: Example 2, Cx. pipiens Susceptible, 10% working dilution in ethanol (mixture 5%+5%), 24 hours
[7] = system: Anopheles albimanus (Carbamate Resistant) FEST larvae; assay: WHO standard larval bioassay; assay type: in vivo; settings: Example 2, An. albimanus Carbamate Resistant, 10% working dilution in ethanol (mixture 5%+5%), 24 hours
[8] = system: Anopheles stephensi (susceptible) Beech larvae; assay: WHO standard larval bioassay; assay type: in vivo; settings: Example 2, An. Stephensi Susceptible, 10% working dilution in ethanol (mixture 5%+5%), 24 hours
[9] = system: Aedes aegypti (susceptible) AeAe larvae; assay: WHO standard larval bioassay; assay type: in vivo; settings: Example 2, Ae. Aegypti Susceptible, 10% working dilution in ethanol (mixture 5%+5%), 24 hours
[10] = system: Anopheles gambiae (Pyrethroid Resistant) VKPR larvae; assay: WHO standard larval bioassay; assay type: in vivo; settings: Example 2, An. Gambiae Py. Resistant, 10% working dilution in ethanol (mixture 5%+5%), 24 hours
[11] = system: Culex quinquefasciatus (susceptible) Muheza larvae; assay: WHO standard larval bioassay; assay type: in vivo; settings: Example 2, Cx. quinquefasciatus Susceptible, 10% working dilution in ethanol (mixture 5%+5%), 24 hours
[12] = system: Anopheles gambiae (susceptible) KWA larvae; assay: WHO standard larval bioassay; assay type: in vivo; settings: Example 2, An. Gambiae Susceptible, 10% working dilution in ethanol (mixture 5%+5%), 24 hours

Row | Compound | LD90 [1] | cross resistance to existing insecticide classes (pyrethroids/OP's/Carbamates/Organochlorines) [2] | LD90 [3] | LD90 [4] | LD90 [5] | LD90 [6] | LD90 [7] | LD90 [8] | LD90 [9] | LD90 [10] | LD90 [11] | LD90 [12]
1 | Cc1ccc(C(C)C)c(O)c1 [Thymol] | 0.172 mL | no evidence of cross resistance | 0.177 mL | 0.115 mL | 0.235 mL | 0.135 mL | 0.224 mL | 0.112 mL | 0.302 mL | 0.261 mL | 0.330 mL | 0.177 mL
2 | Cc1ccc(C(C)C)cc1 [p-Cymene, p-cymene] | 0.150 mL | no evidence of cross resistance | 0.134 mL | 0.088 mL | 0.204 mL | 0.120 mL | 0.191 mL | 0.085 mL | 0.198 mL | 0.202 mL | 0.215 mL | 0.140 mL
